# Laboratory results published in US5888475A, “Labeled cocaine analogs” (Emory University, priority 1997, dated 1999).
# pKi: −log10 of the molar value. Read-outs that look alike come from different tables or passages of the source.
# Columns and labels:
# dopamine transporter = target: T1, dopamine transporter (Rattus norvegicus, UniProt P23977); assay: In vitro binding: displacement of [3H]WIN 35,428 in rat striatal homogenate; settings: displacement of [3H]WIN 35,428, rat striatal homogenate; read-out: calculated binding constant with dopamine transporter
# T1 construct: in a rat striatal homogenate preparation; from tissue; host or cells: rat striatum (homogenate)
# Description: (§1) In vivo distribution of a compound of the invention, [^18 F]-2β-carbo-2'-fluoroisopropoxy-3β-(4-iodophenyl)tropane (FIPIT) 8 (X=4-iodophenyl; Y=1'fluoro-isopropoxy) was measured, as well as brain PET imaging to determine suitability of the compound as a label. Also, in vitro binding studies were conducted, measuring the ability of FIPIT to displace [^3 H]WIN 35,428 (III) in a rat striatal homogenate preparation. These studies provided a calculated binding constant for FIPIT 8 with dopamine transporter of 1.13 nM. […] Region of interest measurements determined striatal to cerebellum ratios to be 3.0 at 190 min post administration. In the in vivo distribution studies, the distribution of radioactivity was expressed as percent dose per gram in tissues of unfasted male Sprague Dawley rats at 2 min, 30 min, 60 min and 120 min after intravenous administration of [^18 F] FIPIT 8. The results are shown in Table I. The initial level of accumulation of radioactivity in the striatum, a region rich in dopamine transporters, after injection of [^18 F] FIPIT 8 was high, 0.84% of injected dose/gram at 2 min, and decreased slowly to 0.50% of injected dose/gram at 120 min. […] However, the amount of radioactivity in the cerebellum and cortex at 120 min decreased to only 0.14% dose/gram and 0.26% dose/gram respectively resulting in a striatum to cerebellum ratio of 3.71 and a striatum to cortex ratio of 2.0.
# [1] = Brain PET imaging with [18F]-FIPIT in a rhesus monkey; assay type: in vivo
# Description: as §1
# [2] = In vivo tissue distribution of radioactivity after intravenous administration; parameters: species or system Sprague Dawley rats; settings: rat, i.v.; for tissue uptake at 2 min / tissue uptake at 0.5 h / tissue uptake at 1 h / tissue uptake at 2 h: iv
# Description: as §1
# T1 sequence (P23977 whole entry): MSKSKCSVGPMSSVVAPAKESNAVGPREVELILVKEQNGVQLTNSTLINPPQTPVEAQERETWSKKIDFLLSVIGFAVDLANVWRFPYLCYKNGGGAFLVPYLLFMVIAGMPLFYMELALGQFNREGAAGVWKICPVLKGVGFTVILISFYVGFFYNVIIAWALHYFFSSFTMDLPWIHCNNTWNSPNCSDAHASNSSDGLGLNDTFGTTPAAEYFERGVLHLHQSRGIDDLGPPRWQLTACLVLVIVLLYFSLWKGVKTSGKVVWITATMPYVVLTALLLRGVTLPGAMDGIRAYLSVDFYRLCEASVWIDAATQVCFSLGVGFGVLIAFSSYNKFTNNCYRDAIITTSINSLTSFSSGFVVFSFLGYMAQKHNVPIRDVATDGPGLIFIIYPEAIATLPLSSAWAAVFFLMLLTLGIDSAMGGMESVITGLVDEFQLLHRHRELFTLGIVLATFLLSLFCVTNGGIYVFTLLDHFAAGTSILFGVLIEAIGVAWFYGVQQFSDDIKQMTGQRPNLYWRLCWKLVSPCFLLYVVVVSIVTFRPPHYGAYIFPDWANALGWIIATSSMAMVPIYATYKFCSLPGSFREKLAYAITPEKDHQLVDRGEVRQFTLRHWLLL
smiles,measurement,setting,value
CC(CF)OC(=O)[C@H]1[C@@H](c2ccc(I)cc2)C[C@@H]2CC[C@H]1N2C (stereo partly drawn) [FIPIT 8],pKi,dopamine transporter,8.95
"CC(C[18F])OC(=O)[C@H]1[C@@H](c2ccc(I)cc2)C[C@@H]2CC[C@H]1N2C (stereo partly drawn) [[^18 F] FIPIT 8, Fluorine-18 labeled2β-carbo-1'-fluoroisopropoxy-3β-(4-iodophenyl)tropane]",brain region of highest uptake (basal ganglia/striatum),[1],region of highest uptake in the brain
same,retention in basal ganglia (striatum),[1]; 190 min following injection,prolonged retention with clear visualization at 190 min
same,striatal to cerebellum ratio (region of interest measurements),[1]; 190 min post administration,3.0
same,tissue uptake at 2 min,"[2]; blood, 2 min, read-out: Blood, Mean % Injected Dose/Gram",0.14 %ID/g
same,tissue uptake at 0.5 h,"[2]; blood, 30 min, read-out: Blood, Mean % Injected Dose/Gram",0.03 %ID/g
same,tissue uptake at 1 h,"[2]; blood, 60 min, read-out: Blood, Mean % Injected Dose/Gram",0.03 %ID/g
same,tissue uptake at 2 h,"[2]; blood, 120 min, read-out: Blood, Mean % Injected Dose/Gram",0.04 %ID/g
same,tissue uptake at 2 min,"[2]; bone, 2 min, read-out: Bone, Mean % Injected Dose/Gram",0.28 %ID/g
same,tissue uptake at 0.5 h,"[2]; bone, 30 min, read-out: Bone, Mean % Injected Dose/Gram",0.21 %ID/g
same,tissue uptake at 1 h,"[2]; bone, 60 min, read-out: Bone, Mean % Injected Dose/Gram",0.17 %ID/g
same,tissue uptake at 2 h,"[2]; bone, 120 min, read-out: Bone, Mean % Injected Dose/Gram",0.25 %ID/g
same,tissue uptake at 2 min,"[2]; brain, 2 min, read-out: Brain (B), Mean % Injected Dose/Gram",0.83 %ID/g
same,tissue uptake at 0.5 h,"[2]; brain, 30 min, read-out: Brain (B), Mean % Injected Dose/Gram",0.53 %ID/g
same,tissue uptake at 1 h,"[2]; brain, 60 min, read-out: Brain (B), Mean % Injected Dose/Gram",0.31 %ID/g
same,tissue uptake at 2 h,"[2]; brain, 120 min, read-out: Brain (B), Mean % Injected Dose/Gram",0.28 %ID/g
same,tissue uptake at 2 min,"[2]; cerebellum, 2 min, read-out: Cerebell (C), Mean % Injected Dose/Gram",0.76 %ID/g
same,tissue uptake at 0.5 h,"[2]; cerebellum, 30 min, read-out: Cerebell (C), Mean % Injected Dose/Gram",0.3 %ID/g
same,tissue uptake at 1 h,"[2]; cerebellum, 60 min, read-out: Cerebell (C), Mean % Injected Dose/Gram",0.16 %ID/g
same,tissue uptake at 2 h,"[2]; cerebellum, 120 min, read-out: Cerebell (C), Mean % Injected Dose/Gram",0.14 %ID/g
same,tissue uptake at 2 min,"[2]; cortex, 2 min, read-out: Cortex (Cx), Mean % Injected Dose/Gram",0.98 %ID/g
same,tissue uptake at 0.5 h,"[2]; cortex, 30 min, read-out: Cortex (Cx), Mean % Injected Dose/Gram",0.53 %ID/g
same,tissue uptake at 1 h,"[2]; cortex, 60 min, read-out: Cortex (Cx), Mean % Injected Dose/Gram",0.28 %ID/g
same,tissue uptake at 2 h,"[2]; cortex, 120 min, read-out: Cortex (Cx), Mean % Injected Dose/Gram",0.26 %ID/g
same,tissue uptake at 2 min,"[2]; heart, 2 min, read-out: Heart, Mean % Injected Dose/Gram",1.7 %ID/g
same,tissue uptake at 0.5 h,"[2]; heart, 30 min, read-out: Heart, Mean % Injected Dose/Gram",0.14 %ID/g
same,tissue uptake at 1 h,"[2]; heart, 60 min, read-out: Heart, Mean % Injected Dose/Gram",0.1 %ID/g
same,tissue uptake at 2 h,"[2]; heart, 120 min, read-out: Heart, Mean % Injected Dose/Gram",0.12 %ID/g
same,tissue uptake at 2 min,"[2]; kidney, 2 min, read-out: Kidney, Mean % Injected Dose/Gram",2.61 %ID/g
same,tissue uptake at 0.5 h,"[2]; kidney, 30 min, read-out: Kidney, Mean % Injected Dose/Gram",0.85 %ID/g
same,tissue uptake at 1 h,"[2]; kidney, 60 min, read-out: Kidney, Mean % Injected Dose/Gram",0.44 %ID/g
same,tissue uptake at 2 h,"[2]; kidney, 120 min, read-out: Kidney, Mean % Injected Dose/Gram",0.3 %ID/g
same,tissue uptake at 2 min,"[2]; liver, 2 min, read-out: Liver, Mean % Injected Dose/Gram",1.5 %ID/g
same,tissue uptake at 0.5 h,"[2]; liver, 30 min, read-out: Liver, Mean % Injected Dose/Gram",3.89 %ID/g
same,tissue uptake at 1 h,"[2]; liver, 60 min, read-out: Liver, Mean % Injected Dose/Gram",5.2 %ID/g
same,tissue uptake at 2 h,"[2]; liver, 120 min, read-out: Liver, Mean % Injected Dose/Gram",4.46 %ID/g
same,tissue uptake at 2 min,"[2]; lung, 2 min, read-out: Lung, Mean % Injected Dose/Gram",6.21 %ID/g
same,tissue uptake at 0.5 h,"[2]; lung, 30 min, read-out: Lung, Mean % Injected Dose/Gram",0.61 %ID/g
same,tissue uptake at 1 h,"[2]; lung, 60 min, read-out: Lung, Mean % Injected Dose/Gram",0.4 %ID/g
same,tissue uptake at 2 h,"[2]; lung, 120 min, read-out: Lung, Mean % Injected Dose/Gram",0.46 %ID/g
same,tissue uptake at 2 min,"[2]; muscle, 2 min, read-out: Muscle, Mean % Injected Dose/Gram",0.12 %ID/g
same,tissue uptake at 0.5 h,"[2]; muscle, 30 min, read-out: Muscle, Mean % Injected Dose/Gram",0.13 %ID/g
same,tissue uptake at 1 h,"[2]; muscle, 60 min, read-out: Muscle, Mean % Injected Dose/Gram",0.04 %ID/g
same,tissue uptake at 2 h,"[2]; muscle, 120 min, read-out: Muscle, Mean % Injected Dose/Gram",0.08 %ID/g
same,washout from brain regions other than striatum,[2],rapid washout in all other brain regions
same,"Bone, Mean % Injected Dose/Gram",[2]; 2 min,0.28 % Injected Dose/Gram
same,"Cerebell (C), Mean % Injected Dose/Gram",[2]; 2 min,0.76 % Injected Dose/Gram
same,"Cortex (Cx), Mean % Injected Dose/Gram",[2]; 2 min,0.98 % Injected Dose/Gram
same,St/C (striatum to cerebellum ratio),[2]; 2 min,1.12
same,St/Cx (striatum to cortex ratio),[2]; 2 min,0.86
same,"Striatum (St), Mean % Injected Dose/Gram",[2]; 2 min,0.84 % Injected Dose/Gram
same,in vivo defluorination (from bone radioactivity),[2]; 2 min to 120 min,stability of the 2β-fluoroisopropyl group to significant in vivo defluorination
same,St/C (striatum to cerebellum ratio),[2]; 30 min,2.42
same,St/Cx (striatum to cortex ratio),[2]; 30 min,1.38
same,St/C (striatum to cerebellum ratio),[2]; 60 min,3.63
same,St/Cx (striatum to cortex ratio),[2]; 60 min,2.13
same,"Bone, Mean % Injected Dose/Gram",[2]; 120 min,0.25 % Injected Dose/Gram
same,"Cerebell (C), Mean % Injected Dose/Gram",[2]; 120 min,0.14 % Injected Dose/Gram
same,"Cortex (Cx), Mean % Injected Dose/Gram",[2]; 120 min,0.26 % Injected Dose/Gram
same,St/C (striatum to cerebellum ratio),[2]; 120 min,3.71
same,St/Cx (striatum to cortex ratio),[2]; 120 min,2.0
same,"Striatum (St), Mean % Injected Dose/Gram",[2]; 120 min,0.50 % Injected Dose/Gram
same,St/Cx (striatum to cortex ratio),"[2]; 120 min, listed as [^18 F] FIPIT (8)",2.00
same,tissue uptake at 2 min,"[2]; spleen, 2 min, read-out: Spleen, Mean % Injected Dose/Gram",1.58 %ID/g
same,tissue uptake at 0.5 h,"[2]; spleen, 30 min, read-out: Spleen, Mean % Injected Dose/Gram",0.64 %ID/g
same,tissue uptake at 1 h,"[2]; spleen, 60 min, read-out: Spleen, Mean % Injected Dose/Gram",0.4 %ID/g
same,tissue uptake at 2 h,"[2]; spleen, 120 min, read-out: Spleen, Mean % Injected Dose/Gram",0.38 %ID/g
same,tissue uptake at 2 min,"[2]; striatum, 2 min, read-out: Striatum (St), Mean % Injected Dose/Gram",0.84 %ID/g
same,tissue uptake at 0.5 h,"[2]; striatum, 30 min, read-out: Striatum (St), Mean % Injected Dose/Gram",0.73 %ID/g
same,tissue uptake at 1 h,"[2]; striatum, 60 min, read-out: Striatum (St), Mean % Injected Dose/Gram",0.58 %ID/g
same,tissue uptake at 2 h,"[2]; striatum, 120 min, read-out: Striatum (St), Mean % Injected Dose/Gram",0.5 %ID/g
same,tissue uptake at 2 min,"[2]; testis, 2 min, read-out: Testis, Mean % Injected Dose/Gram",0.14 %ID/g
same,tissue uptake at 0.5 h,"[2]; testis, 30 min, read-out: Testis, Mean % Injected Dose/Gram",0.68 %ID/g
same,tissue uptake at 1 h,"[2]; testis, 60 min, read-out: Testis, Mean % Injected Dose/Gram",0.17 %ID/g
same,tissue uptake at 2 h,"[2]; testis, 120 min, read-out: Testis, Mean % Injected Dose/Gram",0.19 %ID/g
